Here are results for 3 compounds from patent US6472563B1, “Formoterol tartrate process and polymorph” (Sepracor Inc., priority 2001, dated 2002).

The conditions of data set [1]: compared to other salts of R,R-formoterol; cited from earlier work.
The nature of data set [2]: Dissolution studies: 17 wt % slurry in 50% aqueous isopropyl alcohol stirred with warming. As to conditions: listed as form A. Format: physicochemical.
Experimental: Dissolution studies were done on each polymorph. A 17 wt % slurry of the respective solid in 50% aqueous isopropyl alcohol was stirred with warming, and the temperature of dissolution was recorded.
The conditions of data set [3]: factor; cited from earlier work.

Take `COc1ccc(C[C@@H](C)NC[C@H](O)c2ccc(O)c(NC=O)c2)cc1.O=C(O)C(O)C(O)C(=O)O` [L-(+)-tartrate salt of R,R-formoterol, (R,R)-formoterol L-tartrate]: the hygroscopicity entry in data set [1] was “non-hygroscopic”.

Regarding `COc1ccc(C[C@@H](C)NC[C@H](O)c2ccc(O)c(NC=O)c2)cc1.O=C(O)C(O)C(O)C(=O)O` [Polymorph A, (R,R)-formoterol L-tartrate], the temperature of dissolution in data set [2] was 65-70 °C.

On to `CCCCCCCCCCCCCCCC(=O)OC[C@@H](NC(=O)C(Cl)Cl)[C@H](O)c1ccc([N+](=O)[O-])cc1` [Chloramphenicol-3-palmitate], for which the “difference in bio-activity between form A and form B” value in data set [3] is listed as “eight”.
